Source: US9260504B2, “N- and C-terminal substituted antagonistic analogs of GH-RH” (University of Miami, priority 2008, dated 2016)

Columns and labels:
Type in all cases: in vivo
[1] = system: SK-Hep-1 human hepatocellular cancer; assay: SK-Hep-1 human hepatocellular cancer xenografts in nude mice; conditions: 10 μg/day s.c.
Experimental: SK-Hep-1 cancers were transplanted s.c. into both flank areas of 66 female nude mice, and allowed to grow for 47 days before starting the treatment with GH-RH antagonists. The mice were randomly assigned into 4 experimental groups with 8 animals in each group and received single daily injections for 135 days as follows: 1. Control (vehicle solution); 2. JMR-132 (10 μg/day s.c.); 3. Peptide 1109 (5 μg/day s.c.); 4. Peptide 1109 (10 μg/day s.c.). Tumor volumes were measured once a week. The experiment was ended on day 135 by sacrificing the mice under Isoflurane anesthesia. Resulting tumors were cleaned, weighed, and snap-frozen until further analyses. Statistical analyses of the measurement results were done by two-tailed t-test, p<0.05 being considered significant. Data are presented as the means±S.E.

[2] = system: PC-3 human hormone-independent prostate cancer; assay: PC-3 human prostate cancer xenografts in nude mice, Experiment 2; conditions: 10 μg/day s.c.
Experimental: (§1) Male nude mice were implanted s.c. with 3 mm^3 pieces of PC-3 human hormone-independent prostate cancer tissue on both flanks. When tumors reached a volume of approx. 50 mm^3, the mice were divided into 4 experimental groups with 8 to 10 animals in each group and received single daily injections for 35 days as follows: 1. Control (vehicle solution); 2. JMR-132 (10 μg/day s.c.); 3. Peptide 1109 (10 μg/day s.c.); 4. Peptide 11111 (10 μg/day s.c.); Tumor volumes were measured once a week. The experiment was ended on day 35 by sacrificing the mice under Isoflurane anesthesia. Resulting tumors were cleaned, weighed, and snap-frozen until further analyses. Statistical analyses of the measurement results were done by two-tailed t-test, p<0.05 being considered significant. Data are presented as the means±S.E.
Experiment 2 was similar to Experiment 1. Experiment 2 was started when PC-3 tumors had grown to approximately 50 mm^3 in volume. At this time, the animals were divided into 5 experimental groups with 8 animals in each group, and received single daily injections for 14 days as follows: 1. Control (vehicle solution); 2. JMR-132 (10 μg/day s.c.); 3. Peptide 1109 (5 μg/day s.c.); 4. Peptide 11109 (5 μg/day s.c.); 5. Peptide 11109 (2 μg/day s.c.). Further details of Experiment 2 are the same as for Experiment 1

[3] = system: PC-3 human hormone-independent prostate cancer; assay: PC-3 human prostate cancer xenografts in nude mice, Experiment 1; conditions: 10 μg/day s.c., daily for 35 days; means±S.E.
Experimental: as §1

[4] = system: PC-3 human hormone-independent prostate cancer; assay: PC-3 human prostate cancer xenografts in nude mice, Experiment 4; conditions: 10 μg/day s.c.
[5] = system: PC-3 human hormone-independent prostate cancer; assay: PC-3 human prostate cancer xenografts in nude mice, Experiment 3; conditions: 10 μg/day s.c., 28 days
Experimental: Male nude mice were implanted s.c. with 3 mm^3 pieces of PC-3 human hormone-independent prostate cancer tissue on both flanks. When tumors reached a volume of approximately 50 mm^3, the mice were divided into 12 experimental groups with 8 to 10 animals in each group and received single daily injections for 28 days as follows: 1. Control (vehicle solution); 2. JMR-132 (10 μg/day s.c.); 3. Peptide 11113 (2 μg/day s.c.); 4. Peptide 11119 (2 μg/day s.c.); 5. Peptide 11209 (2 μg/day s.c.); 6. Peptide 11313 (2 μg/day s.c.); 7. Peptide 11408 (2 μg/day s.c.); 8. Peptide 11435 (2 μg/day s.c.); 9. Peptide 11457 (2 μg/day s.c.); 10. Peptide 11459 (2 μg/day s.c.); 11. Peptide 11469 (2 μg/day s.c.); 12. Peptide 11491 (2 μg/day s.c.).
Tumor volumes were measured once a week. The experiment was ended on day 28 by sacrificing the mice under Isoflurane anesthesia. Resulting tumors were cleaned, weighed, and snap-frozen until further analyses. Statistical analyses of the measurement results were done by two-tailed t-test, p<0.05 being considered significant.

[6] = system: NCI-N87 human gastric cancer; assay: NCI-N87 human gastric cancer xenografts in nude mice; conditions: 10 μg/day s.c.
Experimental: NCI-N87 cancers were transplanted s.c. into both flank areas of 30 female nude mice. The mice were randomly assigned into 4 experimental groups with 6 to 9 animals in each group and received single daily injections for 77 days as follows: 1. Control (vehicle solution); 2. JMR-132 (10 μg/day s.c.); 3. Peptide 1109 (10 μg/day s.c.); 4. Peptide 11479 (10 μg/day s.c.). Tumor volumes were measured once a week. The experiment was ended on day 77 by sacrificing the mice under Isoflurane anesthesia. Resulting tumors were cleaned, weighed, and snap-frozen until further analyses. Statistical analyses of the measurement results were done by two-tailed t-test, p<0.05 being considered significant. Data are presented as the means±S.E.

## [PhAc^0-Tyr^1, D-Arg^2, Cpa^6, Ala^8, Har^9, Tyr(Me)^10, His^11, Abu^15, His^20, Nle^27, D-Arg^28, Har^29]hGH-RH(1-29)NH2 [JMR-132, reference compound]
[1]; 135 days
  Tumors with total regression: 2
[1]; 135 days, means±S.E.
  Tumor volume (mm^3) on day 135: 615 ± 372 mm^3
[1]; tumors removed at autopsy
  Tumor weights (mg): 1006 ± 569 (7) mg
[2]; 14 days
  Tumor growth after 2 weeks (%): 432%
[2]; tumor growth after 2 weeks
  Inhibition (%): 39.61%
[3]
  Tumor growth after 5 weeks (%): 2820 ± 498%
[4]
  Tumor growth after 28 days (%): 1004%
  Tumor growth after 46 days (%): 1848%
[4]; after 28 days
  Inhibition (%): 26.62%
[4]; after 46 days
  Inhibition (%): 44.52%
[5]
  Tumor growth inhibition after 4 weeks (%): 28.11%
[6]; 77 days
  Effect on the growth of NCI-N87 cancers: not effective
  Number of regressing tumors: 2
[6]; 77 days, means±S.E.
  Tumor growth after 77 days (%): 409 ± 78%
[6]; day 77, means±S.E.
  Tumor weights: 407 ± 175 mg
[6]; calculated without the regressing tumors
  Tumor doubling time: 40.8 ± 5.9 days
